PMC5603227 (ChemMedChem, 2017)
Converted amounts (≈) assume the structure as drawn.

Experiments:
Assay type in all cases: cell-based, Mycobacterium tuberculosis
[1] = system: Rifampicin resistant strain derived from H37Rv Mtb, ropB mutant (S522L)
[2] = system: Rifampicin resistant strain ACTCC35838; assay: microbe, parasite or virus in culture; details: for MIC: Mycobacterium tuberculosis, ACTCC35838, read-out: MIC RIF res2
[3] = system: Isoniazid resistant strain derived from H37Rv Mtb, katG mutant (Y155*)
[4] = system: Fluoroquinolone resistant strain derived from H37Rv Mtb, gyrA mutant (D94N)
[5] = system: Isoniazid resistant strain ACTCC35822; assay: microbe, parasite or virus in culture; details: for MIC: Mycobacterium tuberculosis, ACTCC35822, read-out: MIC INH res2

CCc1nc2ccc(Cl)cn2c1C(=O)NCc1ccc(S(F)(F)(F)(F)F)cc1 [Compound 17, 6-Chloro-2-ethyl-N-(4-(pentafluoro-λ^6-sulfanyl)benzyl)imidazo[1,2-a]pyridine-3-carboxamide]
MIC RIF res1 [1]: 0.0089 µM (≈ 0.00391 µg/mL)
MIC [2]: 0.022 µM (≈ 0.00968 µg/mL)
MIC INH res1 [3]: 0.051 µM (≈ 0.0224 µg/mL)
MIC FQ res [4]: 0.083 µM (≈ 0.0365 µg/mL)
MIC [5]: 0.021 µM (≈ 0.00924 µg/mL)

NNC(=O)c1ccncc1 [INH, Isoniazid, reference compound]
MIC RIF res1 [1]: 0.160 µM (≈ 0.0219 µg/mL)
MIC [2]: 0.37 µM (≈ 0.0507 µg/mL)
MIC INH res1 [3]: >200 µM
MIC FQ res [4]: 0.34 µM (≈ 0.0466 µg/mL)
MIC [5]: > 200 µM

Cc1ccn2c(C(=O)NCc3ccc(S(F)(F)(F)(F)F)cc3)c(C)nc2c1 [Compound 13, 2,7-Dimethyl-N-(4-(pentafluoro-λ^6-sulfanyl)benzyl)imidazo[1,2-a]pyridine-3-carboxamide]
MIC RIF res1 [1]: 0.079 µM (≈ 0.032 µg/mL)
MIC [2]: 0.52 µM (≈ 0.211 µg/mL)
MIC INH res1 [3]: 0.070 µM (≈ 0.0284 µg/mL)
MIC FQ res [4]: 0.36 µM (≈ 0.146 µg/mL)
MIC [5]: 0.24 µM (≈ 0.0973 µg/mL)

CO[C@H]1/C=C/O[C@@]2(C)Oc3c(C)c(O)c4c(O)c(c(/C=N/N5CCN(C)CC5)c(O)c4c3C2=O)NC(=O)/C(C)=C\C=C\[C@H](C)[C@H](O)[C@@H](C)[C@@H](O)[C@@H](C)[C@H](OC(C)=O)[C@@H]1C [RIF, Rifampicin, reference compound]
MIC RIF res1 [1]: 3.2 µM (≈ 2.63 µg/mL)
MIC [2]: > 50 µM
MIC INH res1 [3]: 0.027 µM (≈ 0.0222 µg/mL)
MIC FQ res [4]: 0.043 µM (≈ 0.0354 µg/mL)
MIC [5]: 0.013 µM (≈ 0.0107 µg/mL)

Levoflaxacin [reference compound]
MIC RIF res1 [1]: 3.43 µM
MIC RIF res2 ([2]; ACTCC35838): 3.83 µM
MIC INH res1 [3]: 3.97 µM
MIC FQ res [4]: 91 µM
MIC INH res2 ([5]; ACTCC35822): 5.83 µM

Cc1cn2c(C(=O)NCc3ccc(S(F)(F)(F)(F)F)cc3)c(C)nc2s1 [Compound 19, 2,6-Dimethyl-N-(4-(pentafluoro-λ^6-sulfanyl)benzyl)imidazo[2,1-b]thiazole-5-carboxamide]
MIC RIF res1 [1]: 0.26 µM (≈ 0.107 µg/mL)
MIC [2]: 0.64 µM (≈ 0.263 µg/mL)
MIC INH res1 [3]: 0.60 µM (≈ 0.247 µg/mL)
MIC FQ res [4]: 0.33 µM (≈ 0.136 µg/mL)
MIC [5]: 0.39 µM (≈ 0.16 µg/mL)

Cc1ccc2nc(C)c(C(=O)NCc3cccc(S(F)(F)(F)(F)F)c3)n2c1 [Compound 16, 2,6-Dimethyl-N-(3-(pentafluoro-λ^6-sulfanyl)benzyl)imidazo[1,2-a]pyridine-3-carboxamide]
MIC RIF res1 [1]: 0.35 µM (≈ 0.142 µg/mL)
MIC [2]: 7.2 µM (≈ 2.92 µg/mL)
MIC INH res1 [3]: 3.1 µM (≈ 1.26 µg/mL)
MIC FQ res [4]: 2.7 µM (≈ 1.09 µg/mL)
MIC [5]: 2.4 µM (≈ 0.973 µg/mL)

Cc1ccc2nc(C)c(C(=O)NCc3ccc(S(F)(F)(F)(F)F)cc3)n2c1 [Compound 15, 2,6-Dimethyl-N-(4-(pentafluoro-λ^6-sulfanyl)benzyl)imidazo[1,2-a]pyridine-3-carboxamide]
MIC RIF res1 [1]: 0.0060 µM (≈ 0.00243 µg/mL)
MIC [2]: 0.016 µM (≈ 0.00649 µg/mL)
MIC INH res1 [3]: 0.044 µM (≈ 0.0178 µg/mL)
MIC FQ res [4]: 0.021 µM (≈ 0.00851 µg/mL)
MIC [5]: 0.011 µM (≈ 0.00446 µg/mL)

Cc1ccn2c(C(=O)NCc3cccc(S(F)(F)(F)(F)F)c3)c(C)nc2c1 [Compound 14, 2,7-Dimethyl-N-(3-(pentafluoro-λ^6-sulfanyl)benzyl)imidazo[1,2-a]pyridine-3-carboxamide]
MIC RIF res1 [1]: 1.3 µM (≈ 0.527 µg/mL)
MIC [2]: 0.13 µM (≈ 0.0527 µg/mL)
MIC INH res1 [3]: 3.4 µM (≈ 1.38 µg/mL)
MIC FQ res [4]: 2.5 µM (≈ 1.01 µg/mL)
MIC [5]: 4 µM (≈ 1.62 µg/mL)

CCc1nc2ccc(Cl)cn2c1C(=O)NCc1cccc(S(F)(F)(F)(F)F)c1 [Compound 18, 6-Chloro-2-ethyl-N-(3-(pentafluoro-λ^6-sulfanyl)benzyl)imidazo[1,2-a]pyridine-3-carboxamide]
MIC RIF res1 [1]: 1.5 µM (≈ 0.66 µg/mL)
MIC [2]: 0.5 µM (≈ 0.22 µg/mL)
MIC INH res1 [3]: 2.9 µM (≈ 1.28 µg/mL)
MIC FQ res [4]: 2.9 µM (≈ 1.28 µg/mL)
MIC [5]: 2.7 µM (≈ 1.19 µg/mL)
